Each structure is given as a SMILES string.

In this test the test system is Corticium sasakii. The experiment in a line: Activity against sheath blight on rice caused by Corticium sasakii (protective spray, rice plants cultivar Tai-Nong 67). The test is classed as in vivo. To be noted: untreated control 90% infection. Here is the method: The active compounds, separately or jointly, were prepared as a stock solution comprising 0.25% by weight of active compound in acetone or DMSO. 1% by weight of the emulsifier Uniperol® EL (wetting agent having emulsifying and dispersing action based on ethoxylated alkylphenols) was added to this solution, and the mixture was diluted with water accordingly to the desired concentration.
Use example—Activity against sheath blight on rice caused by Corticium sasakii
Pots of rice plants of the cultivar “Tai-Nong 67” were sprayed to runoff point with an aqueous suspension having the concentration of active compound stated below. The next day, oat grains infected with Corticium sasakii were planted in the pots (in each case 5 grains per pot). The plants were then placed in a chamber at 26° C. and maximum atmospheric humidity. After […], the sheath blight on the untreated but infected control plants had developed to such an extent that the infection could be determined visually in %.
Evaluation is carried out by determining the infected leaf areas in percent. These percentages were converted into efficacies.
The efficacy (E) is calculated as follows using Abbot's formula: E=(1−αβ)·100 • α corresponds to the fungal infection of the treated plants in % and • β corresponds to the fungal infection of the untreated (control) plants in %
An efficacy of 0 means that the infection level of the treated plants corresponds to that of the untreated control plants; an efficacy of 100 means that the treated plants are not infected.
The expected efficacies of the mixtures of active compounds are determined using Colby's formula [R. S. Colby, Weeds, 15, 20-22 (1967)] and are compared with the observed efficacies.
Colby's formula: E=x+y−x·y/100 • E expected efficacy, expressed in % of the untreated control, when using the mixture of the active compounds A and B at the concentrations a and b • x efficacy, expressed in % of the untreated control, when using the active compound A at the concentration a
y efficacy, expressed in % of the untreated control, when using the active compound B at the concentration b

Where [1] appears, read: 4 ppm active compound in the spray liquor.
Where [2] appears, read: 16 ppm active compound in the spray liquor.

With `CC(C)Oc1cccc(NC(=O)c2ccccc2C(F)(F)F)c1` [II (flutolanil), N-(3-isopropoxyphenyl)-2-trifluoromethylbenzamide], the “Efficacy in % of the untreated control” value by setting is: under setting [1], 0%; under setting [2], 31%.
In the same order, the values of `CC1CCN(c2c(-c3c(F)cc(F)cc3F)c(Cl)nc3ncnn23)CC1` [compound I, 5-chloro-7-(4-methylpiperidin-1-yl)-6-(2,4,6-trifluorophenyl)-[1,2,4]tri-azolo[1,5-a]pyrimidine] are 31% and 65%.

The values above are taken from patent US20070167462A1, “Fungicidal mixtures” (priority 2004, published 2007).
